The values that follow come from paper PMC3726599, “A Metabolically-Stabilized Phosphonate Analog of Lysophosphatidic Acid Attenuates Collagen-Induced Arthritis” (PLoS ONE, 2013).

One test deals with T1, recombinant ATX (Homo sapiens, UniProt Q13822).
T1 construct: purchased SinoBiological Inc (main data); R&D (additional Km values)
Kind of test: Amplex Red activity assay, LPC hydrolysis by recombinant ATX (Echelon). In kind it is biochemical. Conditions: for % Inhibition at 10 μΜ: BrP-LPA 10 μΜ; for Ki: Cheng-Prusoff from IC50; for IC50: [S] 50 μΜ, Echelon ATX 2 nM, mean±std. The method, then:
BrP-LPA inhibition was also tested with the more sensitive reagent Amplex Red based on the Amplex™ Red PLD assay kit (Molecular Probes, Interchim, Montluçon, France) originally designed for the measurement of the PLD activity, [49]. All reactions were performed with purified ATX (2 nM) from Echelon at 37°C. The ability of ATX to cleave LPC was detected using a coupled assay that monitors the release of choline using Amplex Red (10 μΜ), choline oxidase (0.2 Units/ml) and horseradish peroxidise (2 Units/ml) The rate of fluorescence increase was measured in a fluorescence plate reader (Tecan Infinite 200 microplate reader from Tecan Trading AG, Switzerland) for up to 80 minutes; the fluorescence increase was linear during that time-frame for all cases. Rates were normalized to control reactions that contained all reaction components except for the test compound.
The biochemistry of lyso-PLD was assessed by following the kinetics data using a wide panel of different ATX substrates [FS-3, different LPC species (14:0, 16:0, 18:0, 18:1)], three different recombinant ATX proteins (R&D, Sino-Biological and Echelon) and three different ATX activity assays (FS-3, TOOS, Amplex Red). The ATX activity was measured at different substrate concentrations (typically from 1-1000 μM) in order to examine whether ATX follows Michaelis-Menten kinetics. The Michaelis constant (Km) was obtained by fitting the substrate dependence of V (ATX activity) to a rectangular hyperbola using the non-linear regression analysis of the statistical software package Prism 4.0 (GraphPad Software, Inc.). Km and Vmax were evaluated from the rectangular hyperbola curve with the use of GraphPad software.
For in vitro inhibition measurements, BrP-LPA was dissolved in water as a stock solution (4 mM) and appropriate dilutions were made in water. The inhibition of ATX by BrP-LPA was measured employing 2 nM recombinant ATX, 50 μΜ LPC (14:0, 16:0, 18:0) and 0.01 to 100 μmol/L of BrP-LPA (final concentrations). The in vitro inhibition of ATX by BrP-LPA was evaluated with three different assays (FS-3, Amplex Red, and TOOS). […] BrP-LPA was also tested for its ability to inhibit mouse plasma ATX activity. Diluted mouse plasma was used as the source of ATX and the analysis of inhibition was made with TOOS as the in vitro inhibition assay.
The inhibition model (competitive, noncompetitive, or mixed type inhibition) was evaluated by graphical analysis with Lineweaver–Burk double reciprocal plots (1/[velocity] versus 1/[substrate]) and Cornish-Bowden plot ([substrate]/[velocity] versus [Inhibitor]). These plots were generated by the measurement of ATX activity in the presence of different BrP-LPA concentrations (0–10 μΜ) and increased amounts of 16:0 LPC (100, 200, 400 μΜ). The inhibition constants (Ki) and IC50 values were determined using the mean values obtained from two independent experiments. The relative remaining ATX activity or LPA levels in the presence of the BrP-LPA was expressed as a percentage of the corresponding control value (ATX activity, LPA levels without inhibitor). The IC50 value was determined graphically by plotting the log concentration of BrP-LPA versus relative remaining ATX activity or LPA levels of each test sample using the sigmoid dose–response fitting method (Prism® software). The IC50 (concentration of BrP-LPA sufficient to inhibit ATX activity or diminish LPA levels by 50%) was calculated by the equation f = y0+a/(1+exp(-(x-x0)/b)) given by SigmaPlot 11.0 (Systat Software, Inc., San Jose, CA, USA).
Ki was calculated using the equation of Cheng and Prusoff: Ki = IC50/1+[S]/Km, where Ki is the binding affinity of the inhibitor, IC50 is the functional strength of the inhibitor, [S] is substrate concentration and Km is the concentration of substrate at which enzyme activity is half maximal. Whereas the IC50 value for a compound may vary between experiments depending on experimental conditions, Ki is an absolute value. […]

A further test relates to T2, plasma ATX activity.
T2 construct: from tissue; host or cells: mouse plasma / whole blood
Kind of test: In vivo inhibition of plasma ATX activity (TOOS assay). On the set-up: species or system mouse. As to conditions: 10 mg/kg i.p. The protocol:
ATX/LysoPLD activity was assessed based on the amount of choline released from LPC with the use of TOOS (N-ethyl-N-(2-hydoroxy-3-sulfopropyl)-3-methylaniline) reagent. In this assay ATX-mediated LPC-liberated choline is oxidised by choline oxidase to betaine and hydrogen peroxide (H2O2). The latter in the presence of horseradish peroxidase reacts with TOOS and 4-aminoantipyrene (4-AAP) to form a pink quinoneimine dye measured at 555 nm. […]
The liberated choline was detected by adding 100 μl of a color mix containing 4-AAP and TOOS (0.3 mM), horseradish peroxidase (5.3 UnitmL^−1) and choline oxidase (2 UnitmL^−1). Absorbance was measured at 555 nm and data were analyzed using the statistical software package Prism 4.0 (Graphpad Software Inc, La Jolla, CA, USA). For each sample and control the absorbance was plotted against time and the slope (da/min) for the linear (steady-state) portion of each reaction profile was calculated. Absorbance units were converted to nmol of choline/min/ml by comparison with a choline standard curve or by use of the extinction coefficient for the quinoneimine dye according to the following equation: [drawing 1] […]
BrP-LPA was administered intraperitoneally (IP) at 10 mg/kg in water to 6–8 week old female mice. […] Plasma samples were then analysed for plasma ATX activity and BrP-LPA/LPA/LPC levels with the TOOS activity assay and HPLC-MS/MS respectively. […]

One may read the % Inhibition as how much of the control response was suppressed. Usually Ki stands for a measure of affinity in units of concentration, obtained from inhibition or displacement. For orientation: IC50 means the point on the concentration scale where inhibition reaches its midpoint. Take `CCCCCCCCCCCCCCCC(=O)OC[C@@H](O)CC(Br)P(=O)(O)O` (stereo partly drawn) [BrP-LPA, 1-bromo-3(S)-hydroxy-4-(palmitoyloxy)butyl-phosphonate]: the “% Inhibition at 10 μΜ” value at recombinant ATX (14:0 LPC 50 μΜ) and on recombinant ATX (18:0 LPC 50 μΜ) was 75% throughout. Besides, the inhibition constant Ki is 1 ± 0.4 µM on recombinant ATX (14:0 LPC) and 0.8 ± 0.2 µM on recombinant ATX (18:0 LPC). Further, the IC50 at recombinant ATX (substrate 14:0 LPC) came to 1.6 ± 0.1 µM; on recombinant ATX (substrate 18:0 LPC), 1.1 ± 0.1 µM. In addition, the “reduction of plasma ATX activity” value in the test on plasma ATX activity (1 hour post administration) was found to be 48%. In addition, in the test on plasma ATX activity (sixteen hours post administration), the “ATX activity, % of initial activity” value was found to be 92%.
